The source of these data is patent EP0672421B1, “ENDOTHELIN ACTIVITY INHIBITOR” (Kurashiki Boseki Kabushiki Kaisha, priority 1993, dated 2002).

Positions of bridges follow the written chain, without caps; N, C: chain ends. No end group written: not given here.

In the assay the test system is 3T3 cells. In words: Increase of intracellular calcium ion concentration by addition of endothelin. The class given is cell-based. Conditions: mouse 3T3 cells; endothelin-1 0.01 to 100 ng/ml; relative fluorescence intensity; Figure 4. The procedure:
It is known that addition of endothelin into culture cell causes the elevation of intracellular Ca^2+ concentration.
Commercially available 3T3 cells (ATCC No.CCL92) cultured in a flask according to the standard method were used in the experiments. The cells adhered to a inner wall of the flask were harvested by trypsinization treatment, washed three times with Ca^2+-free phosphate buffered saline (PBS) and suspended into 200 µl of the Ca^2+-free PBS. Into the cell suspension, a fluorescent indicator of Ca^2+, FLUO-3AM (Wako chemicals: 1 mM in DMSO solution), was added at a final concentration of 1 µM. The cells were incubated at 37°C for 10 minutes to allow them to uptake the indicator. […]
The increase in relative fluorescence intensity caused by Ca^2+ influx was measured with FACScan of Becton, Dickinson & Co.. In the measurement, a base line was determined over 20 seconds, then a test substance (for example endothelin) was added into the sample and followed the time course of the relative fluorescence intensity for about 80 seconds.
Into each aliquots of the above cell suspension, endothelin-1 was added at a final concentration of 0.01 to 100 ng/ml to observe the changes in the relative fluorescence intensity.
Background: A change in cytosolic calcium serves as a functional read-out for many receptors and channels.

On to “endothelin-1 (CSCSSLMDKECVYFCHLDIIW; disulfide 1-15, 3-11; ends not checked; UniProt P05305 53-73, looked up)”, for which the “increase of intracellular calcium ion concentration” value is given as “increase of the intracellular calcium ion concentration occurs in proportion to the concentration of endothelin”.
